In the supplement of paper PMC13380429:

Tests used:
Settings in all cases: 72 h
Caco-2 [1] = assay: cell viability relative to DMSO; higher = less toxic
Calu-3 [2] = assay: as above
HepG2 [3] = assay: as above
U2OS [4] = assay: as above
Vero E6 [5] = assay: as above
Caco-2 [6] = assay: relative viability EC50 (midpoint between 100% and the lowest measured viability); higher = less toxic
Calu-3 [7] = assay: as above
HepG2 [8] = assay: as above
U2OS [9] = assay: as above
Vero E6 [10] = assay: as above
Caco-2 [11] = assay: drug sensitivity score (DSS) for viability; higher = more toxic; extreme values may be limits of the assay
Calu-3 [12] = assay: as above
HepG2 [13] = assay: as above
U2OS [14] = assay: as above
Vero E6 [15] = assay: as above

Structure (SMILES) | cell viability (Caco-2 [1]; 1 nM) | cell viability (Caco-2 [1]; 10 nM) | cell viability (Caco-2 [1]; 100 nM) | cell viability (Caco-2 [1]; 1000 nM) | cell viability (Caco-2 [1]; 10000 nM) | cell viability (Calu-3 [2]; 1 nM) | cell viability (Calu-3 [2]; 10 nM) | cell viability (Calu-3 [2]; 100 nM) | cell viability (Calu-3 [2]; 1000 nM) | cell viability (Calu-3 [2]; 10000 nM) | cell viability (HepG2 [3]; 1 nM) | cell viability (HepG2 [3]; 10 nM) | cell viability (HepG2 [3]; 100 nM) | cell viability (HepG2 [3]; 1000 nM) | cell viability (HepG2 [3]; 10000 nM) | cell viability (U2OS [4]; 1 nM) | cell viability (U2OS [4]; 10 nM) | cell viability (U2OS [4]; 100 nM) | cell viability (U2OS [4]; 1000 nM) | cell viability (U2OS [4]; 10000 nM) | cell viability (Vero E6 [5]; 1 nM) | cell viability (Vero E6 [5]; 10 nM) | cell viability (Vero E6 [5]; 100 nM) | cell viability (Vero E6 [5]; 1000 nM) | cell viability (Vero E6 [5]; 10000 nM) | relative viability EC50 (Caco-2 [6]) | relative viability EC50 (Calu-3 [7]) | relative viability EC50 (HepG2 [8]) | relative viability EC50 (U2OS [9]) | relative viability EC50 (Vero E6 [10]) | drug sensitivity score (Caco-2 [11]) | drug sensitivity score (Calu-3 [12]) | drug sensitivity score (HepG2 [13]) | drug sensitivity score (U2OS [14]) | drug sensitivity score (Vero E6 [15])
CC1(C)C(=O)N(CCN2CCC(C(=O)c3ccc(F)cc3)CC2)c2ccccc21 | 88.5% | 102% | 104% | 97.2% | 91.6% | 99.5% | 91.4% | 90.6% | 98.4% | 89.8% | 95.3% | 102% | 90.8% | 97% | 87.8% | 97.7% | 96.3% | 98.2% | 95.9% | 97.8% | 96.1% | 102% | 91.8% | 94.2% | 106% | > 10 µM | > 10 µM | > 10 µM | > 10 µM | > 10 µM | 0 | 0 | 0 | 0 | 0
CCS(=O)(=O)N1CCC[C@@H]2CN3CCc4cc(OC)ccc4[C@@H]3C[C@@H]21 | 94.7% | 94.2% | 95% | 104% | 91.7% | 103% | 90.4% | 109% | 101% | 103% | 99.9% | 113% | 109% | 92.2% | 102% | 99.5% | 103% | 108% | 108% | 106% | 96.3% | 103% | 97.1% | 93.8% | 105% | > 10 µM | > 10 µM | > 10 µM | > 10 µM | > 10 µM | 0 | 0 | 0 | 0 | 0
COc1ccc2cccc(N3CCN(CCNC(=O)c4ccc(F)cc4)CC3)c2c1 | 98.3% | 95.3% | 98.3% | 90.6% | 86.2% | 96.6% | 105% | 104% | 106% | 83% | 99.2% | 98.9% | 97.4% | 95.4% | 89.5% | 95.7% | 103% | 92.7% | 96.4% | 90.4% | 103% | 104% | 97.5% | 94% | 89.3% | > 10 µM | > 10 µM | > 10 µM | > 10 µM | > 10 µM | 0.3 | 0.2 | 0 | 0 | 0
C[C@@H](NCc1cc(Br)cc2nc(O)c(O)nc12)P(=O)(O)O | 97% | 100% | 109% | 94.4% | 97.5% | 103% | 86% | 81% | 110% | 102% | 94.2% | 94% | 99.4% | 93.3% | 89.2% | 107% | 97.2% | 96.6% | 92.5% | 98.4% | 105% | 105% | 103% | 98.8% | 96.1% | > 10 µM | > 10 µM | > 10 µM | > 10 µM | > 10 µM | 0 | 0 | 0 | 0 | 0
Cc1ccc(-n2sc(=O)n(Cc3ccc(F)cc3)c2=O)cc1 | 99.1% | 97.7% | 98.4% | 100% | 95.9% | 104% | 83.1% | 110% | 98.9% | 94.3% | 89.2% | 107% | 95.9% | 96.1% | 96.1% | 97.9% | 98.7% | 99.6% | 96.1% | 108% | 96.4% | 97.7% | 97.1% | 99.1% | 93.5% | > 10 µM | > 10 µM | > 10 µM | > 10 µM | > 10 µM | 0 | 0 | 0 | 0 | 0
O=C(NCCCN1CCCCCC1)C(c1ccccc1)C1CCCCC1 (stereo not given) | 101% | 101% | 105% | 107% | 95% | 111% | 94.1% | 102% | 104% | 98.8% | 107% | 107% | 100% | 89% | 84.7% | 104% | 101% | 101% | 106% | 95.7% | 95.8% | 96.1% | 96.5% | 99.6% | 94.9% | > 10 µM | > 10 µM | > 10 µM | > 10 µM | > 10 µM | 0 | 0 | 1 | 0 | 0
O=C(Nc1ccc(Cl)nc1)c1ccc(Cl)cc1 | 103% | 90.2% | 97.8% | 98.8% | 102% | 94.9% | 90.6% | 96.6% | 94.2% | 102% | 97.5% | 109% | 106% | 103% | 110% | 95.6% | 94.3% | 101% | 93.2% | 95.7% | 95.4% | 98.7% | 95.9% | 94.1% | 100% | > 10 µM | > 10 µM | > 10 µM | > 10 µM | > 10 µM | 0 | 0 | 0 | 0 | 0
O=C1CS[C@@H](c2ccccc2Cl)c2cc(Cl)ccc2N1 (racemic) | 92.3% | 101% | 92.2% | 98.6% | 90.1% | 94.5% | 100% | 96.7% | 100% | 105% | 100% | 98.7% | 96.4% | 110% | 102% | 106% | 104% | 94.4% | 101% | 102% | 96.6% | 97.6% | 99.1% | 97.8% | 104% | > 10 µM | > 10 µM | > 10 µM | > 10 µM | > 10 µM | 0 | 0 | 0 | 0 | 0
C[C@@H]([C@H](O)c1ccc(O)cc1)N1CCC(Cc2ccccc2)CC1 (racemic) [ifenprodil] | 96.8% | 101% | 96.1% | 98% | 89.8% | 99.4% | 96.5% | 92% | 91.8% | 84.1% | 103% | 99.5% | 104% | 92.8% | 88.2% | 103% | 101% | 99.9% | 102% | 98.5% | 101% | 103% | 102% | 98.8% | 97.6% | > 10 µM | > 10 µM | > 10 µM | > 10 µM | > 10 µM | 0 | 0.6 | 0.3 | 0 | 0
Cn1cc(-c2ccc(S(=O)(=O)n3ccc(/C=C/C(=O)Nc4ccccc4N)c3)cc2)cn1 [4SC-202] | 85.2% | 96.9% | 102% | 73.4% | 42% | 91.7% | 86% | 78.7% | 45.9% | 23.8% | 88.5% | 102% | 92.7% | 52.4% | 25.8% | 95.8% | 96.6% | 102% | 72.5% | 13.3% | 96.7% | 104% | 91% | 69.9% | 30.8% | 1.07 µM | 0.26 µM | 0.623 µM | 1.36 µM | 1.12 µM | 6.6 | 13.3 | 10.1 | 8.8 | 7.2
COc1cc2c(CCNC(C)=O)c[nH]c2cc1Cl [6-chloromelatonin] | 96% | 98.3% | 92.7% | 98.1% | 91% | 99.5% | 96.5% | 98.9% | 105% | 98.3% | 107% | 97.2% | 94.7% | 90.5% | 98.9% | 100% | 101% | 101% | 101% | 99.3% | 97.8% | 93.8% | 96.2% | 89.9% | 102% | > 10 µM | > 10 µM | > 10 µM | > 10 µM | > 10 µM | 0 | 0 | 0 | 0 | 0
CCC(=O)NC1CCc2cccc(OC)c2C1 (stereo not given) [8-M-PDOT] | 100% | 99.5% | 99.3% | 98.7% | 119% | 109% | 112% | 102% | 97.6% | 112% | 100% | 94.6% | 101% | 99.1% | 102% | 104% | 97.9% | 103% | 101% | 109% | 99.6% | 106% | 98.5% | 103% | 106% | > 10 µM | > 10 µM | > 10 µM | > 10 µM | > 10 µM | 0 | 0 | 0 | 0 | 0
Nc1ncnc2c1ncn2[C@@H]1O[C@H](COP(=O)(O)OP(=O)(O)OP(=O)(O)O)[C@@H](O)[C@H]1O [ADENOSINE TRIPHOSPHATE DISODIUM] | 95.3% | 103% | 99.5% | 97.1% | 105% | 97% | 96.6% | 104% | 95.3% | 110% | 101% | 100% | 106% | 93.2% | 98.4% | 93.8% | 97.9% | 93.3% | 101% | 110% | 91.9% | 90.5% | 90.6% | 90.2% | 106% | > 10 µM | > 10 µM | > 10 µM | > 10 µM | > 10 µM | 0 | 0 | 0 | 0 | 0
C=CC(=O)Nc1ccc2ncnc(Nc3ccc(OCc4cccc(F)c4)c(Cl)c3)c2c1 [AST-1306] | 93.4% | 105% | 83.3% | 80.6% | 6.1% | 98.9% | 80.4% | 40.4% | 32.3% | 4.3% | 102% | 96.7% | 107% | 92.8% | 48.2% | 91.4% | 72.7% | 91.5% | 61.3% | 23.4% | 99.8% | 97% | 83.7% | 51.8% | 17.7% | 1.72 µM | 0.0782 µM | 2.06 µM | 0.665 µM | 0.575 µM | 8.3 | 22.6 | 4 | 9.8 | 11.3
